For one data set, the system named is p27 in melanoma cells. Briefly: Immunofluorescence of p27. Type of data set: cell-based, mouse. Conditions: cells treated with methyl sulfone. Here is the method: Cells were grown on 12 mm coverslips until 60 to 70% confluent. 2% methyl sulfone was added to half the coverslips and normal medium to other half. After 24, 48, and 96 hours, coverslips were placed in porcelain holders and incubated in 37° C. PBS for 30 seconds followed by incubation in 37° C. 4% paraformaldehyde for 10 minutes. Cells were washed in PBS for 5 minutes followed by incubation in 0.2% Triton X-100/PBS for 5 minutes at room temperature. Chicken serum ([…] in 1 ml PBS) was added to cells for 30 minutes. Cells were washed 3 times in 0.2% Triton X-100/PBS, 3 minutes each. Rabbit anti-p27 polyclonal antibody, (Santa Cruz Biotech, Calif.) was diluted 1/250 in 1% BSA/PBS and added to coverslips for 1.5 hours. Cells were washed 5 times in 0.2% Triton X-100/PBS, 3 minutes each. Secondary antibody, Alexa Fluor 488 chicken anti-rabbit antibody, was diluted 1/1000 in 1% BSA/PBS and added to coverslips for 30 minutes in the dark. Cells were washed five times in 0.2% Triton X-100/PBS, three minutes each. Cells were washed twice in PBS for two minutes each and placed in DAPI, diluted 1/1000 in PBS, for 5 minutes. Cells were washed in PBS for one minute. SlowFade was added to slides, coverslips were placed face down and sealed with nail polish. […]

The test system of data set [1] is Mouse breast cancer cells (66Cl-1). Briefly: Effects of methyl sulfone on estrogen receptor-negative breast cancer cells. Type of data set: cell-based. The protocol: Cloudman S-91 mouse melanoma cells (sub-clone M-3, CCL 53.1; American Type Culture Collection, Rockville, Md.) were grown in RMPI medium supplemented with 10% fetal bovine serum (Invitrogen, Inc) and 5% penicillin-streptomycin (Invitrogen, Inc). Mouse breast cancer cells (66Cl-1; American Type Culture Collection, Rockville, Md.) that are estrogen-receptor negative were grown in DMEM medium supplemented with 10% fetal bovine serum (Invitrogen, Inc) and 5% penicillin/streptomycin (Invitrogen, Inc). Human T-cell leukemic lymphocytes (CEM; American Type Culture Collection, Rockville, Md.) were grown in MEM medium supplemented with 7% fetal calf serum. Cultures were passaged twice a week. […]
Cells were plated onto sterile 12 mm coverslips in 35 mm tissue culture plates and incubated at 37° C., 5% CO2. After 24 hours, 2% methyl sulfone in medium or medium alone was added the plates and incubated at 37° C., 5% CO2 for 48 and 72 hrs. BrdU (Molecular Probes, Eugene, Oreg., USA; diluted ⅓ in RPMI medium) was added to each plate for 60 minutes at 37° C., 5% CO2. Coverslips were transferred to porcelain holders, washed with PBS, fixed in methanol/acetone (1:1), washed with PBS, and incubated in 5% BSA/PBS for 30 minutes at room temperature. To denature DNA, coverslips were placed in 0.1N HCL/1% Triton X-100 for 10 minutes at room temperature. After washing in PBS, cells were incubated with Alexa Fluor 488 anti-BrdU antibody (Molecular Probes, Eugene, Oreg.; diluted 1/20 in 5% BSA/PBS) for 60 minutes at room temperature. Cells were washed in PBS and incubated with Hoechst (diluted 1/1000 in PBS) in the dark at room temperature. After washing in PBS, cells were dipped in dH2O and drained onto Kim Wipes. SlowFade mounting medium (Molecular Probes, Eugene, Oreg.) was added to a glass slide and coverslips were placed face down onto slides and sealed with clear nail polish. Cells were viewed at the Center for Cell Analysis and Modeling, University of Connecticut Health Center, Farmington, Conn., with an Axioplan CCD Microscope equipped with a 40×1.3 NA FL objective lens, equipped with a Photometrics PXL-EEV37 high speed digital cooled CCD camera. Molecular Devices Metamorph was used for image acquisition.
Cells were plated on 8-35 mm plates that contained base agar with and without 2% methyl sulfone. To make base agar, 1% agar (DNA grade; Difco Bacto Agar; Becton Dickenson and Company, Sparks, Md.), was mixed in water at room temperature, melted in a microwave, and cooled to 40° C. before using. For drug plates, 1% agar was combined (1:1) with 4% methyl sulfone in 2×RPMI medium with sodium bicarbonate supplemented with 10% FBS and 5% penicillin/streptomycin. For control plates, 1% agar was combined (1:1) with 2×RMPI medium. Agar +/−2% methyl sulfone was added to appropriate 35 mm tissue culture plates and stored overnight at 4° C. The next day top agar and cells were placed on top of the base agar. Top agar was made with 0.66% agar in water. The agar was melted in a microwave, cooled, and stored at 40° C. 2×RPMI medium and 4% methyl sulfone was also stored at 40° C. Cells were trypsinized and counted for a final concentration of 5×10^3 cells/plate. Cell counts were adjusted to 2×10^5 cells/ml and 0.05 ml of the cell suspension was added to 15 ml centrifuge tubes (2 each). Base agar plates were removed from 4° C. and allowed to warm to room temperature for approximately 30 minutes prior to plating. For plating control cells, 2×RPMI medium and 0.66% agar were added to the tube of cell suspension, gently mixed, and placed on top of control base agar plates. For plating cells in 2% methyl sulfone, 4% methyl sulfone (in 2×RMPI medium) and 0.66% agar was added to the tube of cell suspension, mixed gently, and placed on top of the drug base agar plates. Cells were incubated in the 37° C., 5% CO2 incubator for 10-14 days. Plates were stained with 0.005% crystal violet for 1 hour. Colonies were photographed and counted with a dissecting microscope. […]

The test system of data set [2] is neutrophils from healthy volunteers. Put plainly: Apoptosis of normal neutrophils by Flow Cytometry. Type of data set: cell-based, human. The settings on record: 10% methyl sulfone, 20 hours. The protocol:
Blood was drawn from healthy volunteers and white blood cells (e.g., lymphocytes, neutrophils) were enriched using Ficoll-Plaque. Cells were incubated in Petri dishes containing MEM with 7% fetal calf serum in a CO2 (5%) incubator at 37° C.; Methyl sulfone was present at concentrations of 0, 3, 6, or 10%. After 20 hours, cells were incubated with antibodies specific to T-lymphocytes (CD3 and CD4 T-cells), B-lymphocytes (B-cells) and neutrophils, and the percent of apoptotic cells was determined by Flow Cytometry. This is a technique that identifies specific cell types (e.g., CD3 T-cells, CD4 T-cells, B-cells, neutrophils) within a mixed population of blood cells, and then determines whether the cells are alive or apoptotic.
After 20 hours, cells were incubated with fluorescent antibodies to identify T-cells, B-cells and neutrophils, and then processed by Flow Cytometry (FIG. 15).

The conditions of data set [3]: 20° C.; cited from earlier work.

The values that follow come from patent publication US10363229B2, “Methods and compositions for the treatment of cancer” (priority 2009, dated 2019).

Consider methyl sulfone, for which, in the data set on p27 in melanoma cells, the “localization of p27” value is given as “localized in the nuclei”. For the same substance, in data set [1] (2% methyl sulfone), the DNA synthesis entry is “markedly reduced”, the “cell growth anchorage dependence” value was “anchorage-dependent”, the contact inhibition result is reported as “contact inhibited” and the “migration of cells through an extracellular matrix” value was “inhibited”. In data set [1] (2% methyl sulfone), the mitochondrial activity result is reported as “decreased”, the senescence result is recorded as “became senescent” and the wound healing result is “proceeded normally”. Moreover, the “methyl sulfone concentration inducing apoptosis in breast cancer cells” value in data set [1] (breast cancer cells) is recorded as “above 2%”. The effect on neutrophils entry in data set [2] is recorded as “unharmed”. Besides, in data set [3], the approximate water solubility was approximately 150 mg/mL.
